{"source": "patent US20260263543A1", "about": "“COMPOSITIONS AND METHODS TO INCREASE PRODUCTION OF GAMMA-AMINOBUTYRIC ACID” (Verb Biotics, priority 2023, published 2026)", "key": {"healthy adults": {"tested_on": "healthy adults", "assay": "Urine GABA and 5-HIAA levels in human participants after Lp815 supplementation", "assay_type": "in vivo", "conditions": "week 4, 1×10^9 cfu/day for 4 weeks", "description": "The Lactiplantibacillus plantarum Lp815 strain was assessed for its ability to increase GABA levels in human participants. Eight healthy adults (5 female, 3 male) provided a urine sample at baseline (T=0). Urine was analyzed for GABA and 5-HIAA levels using the Neurotransmitter Basic Panel (available from Life Extension/National Diagnostics, Inc.). 5-HIAA is a metabolite of serotonin and indicative of serotonin levels in a subject. Participants with GABA levels in the high range at baseline ([…] GABA) were excluded from the study. Participants proceeded to take the Lp815 probiotic at 1×10^9 cfu/day for 4 weeks. Participants refrained from beginning any new treatments, using antibiotics, or taking any additional probiotic products.\nAfter 4 weeks of supplementation, a second urine sample was collected and GABA levels measured. […] Additionally, levels of 5-HIAA were increased by approximately 10% at week 4 relative to baseline (FIG. 1B)."}, "[1]": {"tested_on": "Participants with self-reported mild to moderate anxiety", "assay": "Double blind, randomized, placebo-controlled study of GAD-7 generalized anxiety scores", "assay_type": "in vivo, human", "conditions": "1×10^9 CFU or 5×10^9 CFU daily; weeks 2, 4, and 6; FIG. 2", "description": "A double blind, randomized, placebo-controlled study was conducted to assess the impact of Lactiplantibacillus plantarum Lp815 on generalized anxiety scores. Participants with self-reported mild to moderate anxiety as measured by the GAD-7 questionnaire were enrolled in a six week trial. Participants with severe anxiety were excluded.\nThe GAD-7 questionnaire is a self-reported questionnaire that assesses anxiety levels based on 7 questions as measured over the last two weeks: 1) feeling nervous, anxious, or on edge, 2) not being able to stop or control worrying, 3) worrying too much about different things, 4) trouble relaxing, 5) being so restless that it is hard to sit still, 6) becoming easily annoyed or irritable, and 7) feeling afraid as if something awful might happen. For each question, a score of 0 (not at all), 1 (several days), 2 (more than half the days), or 3 (nearly every day) is assigned. The total score is a sum across the seven questions. A total score of 0-4 indicates minimal anxiety, 5-9 indicates mild anxiety, 10-14 indicates moderate anxiety, and 15-21 indicates severe anxiety.\nParticipants were divided into either placebo, 1×10^9 CFU daily of Lp815 or 5×10^9 CFU daily of Lp815. The GAD-7 questionnaire was administered at baseline, 2 weeks, 4 weeks and 6 weeks following supplementation."}, "GABA production": {"tested_on": "GABA production", "assay": "Synthesis of GABA in vitro (conversion of glutamate to GABA in culture)", "assay_type": "cell-based, Lactiplantibacillus plantarum", "conditions": "cultures grown under anaerobic conditions at ~37° C. for 48 hours; data not shown", "description": "The Lactiplantibacillus plantarum Lp815 strain was assessed for its ability to convert glutamate to GABA in vitro. Overnight, stationary phase cultures (16-18 h) of L. plantarum Lp815 were used to inoculate 3 mL of fresh media at an optical density of ~0.05 as measured at 600 nm by a spectrophotometer (OD600). Multiple media types can be used, including rich media (e.g., MRS broth) or minimal media supplemented with the necessary components to support growth. The media can further be supplemented with L (+)-glutamic acid or a salt thereof and/or piperazine-N,N′-bis(2-ethanesulfonic acid) (PIPES). Cultures were grown under anerobic conditions at ~37° C. for 48 hours."}}}
{"substance": "Lactiplantibacillus plantarum Lp815", "values": [{"measurement": "GABA levels increase relative to baseline", "setting": "healthy adults; FIG. 1A", "result": "approximately 20%"}, {"measurement": "levels of 5-HIAA increase relative to baseline", "setting": "healthy adults; FIG. 1B", "result": "approximately 10%"}, {"measurement": "decrease in GAD-7 scores relative to baseline", "setting": "[1]", "result": "10-15 points"}, {"measurement": "GABA production", "setting": "GABA production", "result": "increase in GABA production"}]}
